Holding throughout (type): cell-based, human
In assay [1] the test system is collagen and thrombin activated platelets. In words: cells. The procedure:
(§1) Platelet isolation was performed as described.^10 Briefly, 10 milliliters (mL) blood was collected in 2 mL anticoagulant ACD (80 mmol/L trisodium citrate, 52 mmol/L citric acid and 180 mmol/L glucose). Platelet rich plasma was obtained by centrifuging whole blood for 15 minutes at 200 g. Platelets were spun down at 11,500× gravity for 2 minutes using a microfuge. The platelet pellet was resuspended and washed twice with 10 mmol/L HEPES, 137 mmol/L NaCl, 2.7 mmol/L KCl, 2 mmol/L MgCl2, 5 mmol/L glucose and 0.5 mg/mL BSA, adjusted at pH 6.6); before each centrifugation step, 100 μL ACD was added to each mL resuspended platelets. Finally, platelets were resuspended in HEPES buffer at pH 7.4. Platelet count was adjusted at 2×10^8 platelets/mL. For measurement of the intracellular Ca^2+ concentration ([Ca^2+]i), platelets were loaded with Fura-2 (3 μmol/L) during 45 minutes at 37° C., prior to isolation.
Platelet activation was performed at 37° C. at a concentration of 10^7 platelets/mL in a volume of 0.5 mL under continuous stirring in the presence of 3 mmol/L CaCl2. Platelet agonists used were thrombin (5 nmol/L) plus collagen (10 μg/mL) or ionomycin (1 μmol/L). The effect of different inhibitors was studied by pre-treatment of platelets with the various agents for 30 minutes before starting the activation procedure. For the effects of high extracellular [K^+], platelet suspensions were diluted 20-fold to a concentration of […] in a modified HEPES buffer, referred to as HEPES/KCl buffer (10 mmol/L HEPES, 19.7 mmol/L NaCl, 120 mmol/L KCl, 2 mmol/L MgCl2, 5 mmol/L glucose and 0.5 mg/mL BSA, pH 7.4), activated and assayed for thrombin generation as described before. In some experiments, HEPES buffer was used in which 120 mmol/L NaCl was replaced by 120 mmol/L choline chloride (10 mmol/L HEPES, 17 mmol/L NaCl, 120 mmol/L choline chloride, 2.7 mmol/L KCl, 2 mmol/L MgCl2, 5 mmol/L glucose and 0.5 mg/mL BSA, pH 7.4), referred to as HEPES/Choline buffer.
(§2) Platelet procoagulant activity was assayed as described in more detail elsewhere.^9 Briefly, after activation of 10^7 platelets/mL with collagen (10 μg/mL) and thrombin (4 nmol/L) for 10 minutes, samples were taken and diluted to 10^6 platelets/mL in HEPES buffer containing 3 mmol/L CaCl2 and 0.5 mg/mL BSA. The samples were incubated with 0.2 nmol/L factor Xa and 2 nmol/L factor Va for 1 minute at 37° C. Thrombin formation was initiated by addition of 1 μmol/L prothrombin and arrested after 2 minutes by addition of 10 mmol/L EDTA. Thrombin was measured using the chromogenic substrate S2238.
FIG. 2. illustrates the effect of potassium channel inhibitors on collagen plus thrombin induced platelet procoagulant activity. Platelets at 10^7 ml^−1 were preincubated with various inhibitors for 30 minutes followed by activation with collagen (10 μg/ml) plus thrombin (4 nmol/L) for 10 minutes. Samples from these incubations were diluted 10-fold in HEPES buffer containing 3 mmol/L CaCl2 and subsequently analyzed for prothrombinase activity (A) or percentage of annexin-positive cells (B) as described in the Materials and Methods section above. Valinomycin was added 5 minutes prior to activation of the platelets (to avoid long term effects of this ionophore). Black bars: absence of valinomycin; hatched bars: presence of valinomycin. […] Student's t-test was used to compare data in the presence and absence of valinomycin.

The subject of assay [2] is collagen plus thrombin activated platelets. Description: Flow cytometry, binding of FITC-conjugated annexin A5 (PS exposure). The procedure: as §1
Platelet activation was performed at 37° C. at a concentration of 10^7 platelets/mL in a volume of 0.5 mL under continuous stirring in the presence of 3 mmol/L CaCl2. Platelet agonists used were thrombin (5 nmol/L) plus collagen (10 μg/mL) or ionomycin (1 μmol/L). […]
Samples for flow cytometry were taken simultaneously with samples for the prothrombinase assay from the platelet incubations after 10 minutes activation. To measure PS exposure, samples were diluted 10-fold in HEPES buffer containing 3 mmol/L CaCl2 and incubated with FITC-conjugated Annexin A5 (final concentration 10 nmol/L) for 5 minutes and analyzed for light scatter and fluorescence by a Coulter Epics XL-MLC™ flow cytometer. Light scatter and fluorescence channels were set at logarithmic gain. Scatter parameters and fluorescence intensities were obtained from 10,000 platelets and analyzed off-line using WinMDI version 2.8 software (http://facs.scripps.edu/software.html). Ionomycin activated platelets were used to set a marker for fluorescence intensity of annexin-positive platelets to measure the percentage of annexin-positive platelets after the various incubation procedures. […]
Background: A flow cytometer gives signals particle by particle.

For assay [3], the system named is platelets, collagen plus thrombin induced aggregation. Description: Platelet aggregation (Chronolog aggregometer). How it is done:
(§3) Aggregation was measured at 37° C. in 450 μL samples of a platelet suspension of 2×10^8/mL using an automated model 400 Chronolog aggregometer (Chronolog Corporation, Chicago, USA). After stirring for 2 minutes at 300 rpm, CaCl2 (3 mmol/L) was added, 1 minute later followed by simultaneous addition of 10 μg/mL collagen and 4 nmol/L thrombin. The resulting aggregation was recorded for 5 minutes after which 50 μL ATP-reagent (Boehringer Mannheim ATP Bioluminescence Assay Kit HS II) was added to quantify the release reaction.

Assay [4] relates to platelets, collagen plus thrombin induced release of ATP. In words: Platelet release reaction (ATP bioluminescence). The procedure:
as §3

Assay [5] has as its system collagen plus thrombin activated platelets. In words: Measurement of [Ca2+]i of Fura-2-loaded platelets in suspension. The procedure: as §1
Platelets (5×10^7/mL) were incubated with K^+ channel inhibitors for 5 minutes, followed by the addition of tirofiban (5 μg/mL) and Ca^2+ (3 mmol/L) and incubated for an additional 5 minutes under stirring conditions. Collagen (10 μg/mL) plus thrombin (5 nmol/L) were then added simultaneously. Changes in [Ca^2+]i of Fura-2-loaded platelets were measured under continuous stirring by dual excitation fluorometry in an SLM-Aminco 8100 spectrofluorimeter (SLM Instruments). Ratio values of fluorescence at 340 and 380 nm excitation, obtained 5 minutes after activation with collagen plus thrombin, were converted to levels of [Ca^2+]i as described.^14 Experiments were performed in triplicate at 37° C.

Assay [6] concerns platelets, tetracaine-induced PS exposure. Description: Tetracaine-induced prothrombinase activity.
Assay [7] has the same test system. In words: Tetracaine-induced binding of FITC-conjugated annexin A5.
In assay [8] the test system is platelets from a patient with Scott syndrome. In words: Prothrombinase activity of platelets from a patient with Scott syndrome. As to conditions: valinomycin 3 μmol/L; collagen plus thrombin stimulation; FIG. 5. The procedure: For experiments with platelets from a patient with Scott syndrome, freshly obtained citrated blood from the patient and a control was shipped by airmail and platelets were isolated and used for experiments immediately upon arrival (approx 24 hours after blood donation).
as §2
In FIG. 5, the effect of valinomycin on collagen plus thrombin induced procoagulant activity of platelets from a patient with Scott syndrome is shown. Prothrombinase activities, expressed as nmol/L thrombin formed per minute, were determined after activation with collagen (10 μg/ml) plus thrombin (4 nmol/L) in the absence (black bars) and presence (hatched bars) of valinomycin (3 μmol/L). Data are mean values±1 S.D. (n=6).

Setting [9] is: collagen 10 μg/mL plus thrombin 4 nmol/L, concentration as given in row.

Usually inhibition stands for the relative decrease from the control value, in per cent.

“Also recorded” adds a separate entry of the source. Like-named read-outs stand apart in the source and are kept apart here.

Consider `Clc1ccccc1C(c1ccccc1)(c1ccccc1)n1ccnc1` [clotrimazol, 1-[(2-chlorophenyl)diphenylmethyl]-1H-imidazole], for which, in assay [1] (Homo sapiens, Platelet, read-out: inhibition of the prothrombinase activity of collagen and thrombin activated platelets), the inhibition at 10 µM worked out at 46 ± 13%. For the same compound, in assay [2], the “extent of annexin binding (mean fluorescence intensity) of the residual PS positive platelets” value was “remains at the same level” and the “number of PS-exposing (annexin-positive) platelets” value is “decreased”. For the same compound, the “Aggregation % of control (±S.D.)” value in assay [3] is on record as 90.0 ± 2.8 % of control. Besides, in assay [3] (collagen plus thrombin induced, aggregation and ATP release together), the “effect on aggregation or release, in words” value is “Neither high extracellular [K^+], nor the presence of clotrimazol or charybdotoxin showed an appreciable effect”. In addition, in assay [4], the “Release (ATP) % of control (±S.D.)” value is recorded as 91.3 ± 5.0 % of control. Besides, in assay [5] (5 minutes after stimulation with collagen plus thrombin, clotrimazol 10 μmol/L, charybdotoxin 20 nmol/L, control 364±18), the “Δ[Ca2+]i” value worked out at 275 ± 10 nmol/L. Besides, the “reduction of the increase in [Ca2+]i versus absence of inhibitors” value in assay [5] (clotrimazol 10 μmol/L) is on record as 24%. Further, the “inhibition of tetracaine-induced prothrombinase activity” value in assay [6] is recorded as “neither clotrimazol nor charybdotoxin could inhibit”. The “inhibition of tetracaine-induced binding of FITC-conjugated annexin A5” value in assay [7] is recorded as “neither clotrimazol nor charybdotoxin could inhibit”.

Consider `C=C[C@H]1CN2CC[C@H]1C[C@H]2[C@H](O)c1ccnc2ccc(OC)cc12.Cl` [quinine, quinine hydrochloride], for which the “Aggregation % of control (±S.D.)” value in assay [3] (setting [9]) is 40.0 ± 3.0 % of control. Besides, the “inhibition of the aggregation” value in assay [3] (collagen plus thrombin induced) is “approximately 60%”. For the same compound, the “Release (ATP) % of control (±S.D.)” value in assay [4] (setting [9]) is reported as 90.1 ± 4.1 % of control. Further, in assay [4] (collagen plus thrombin induced), the “effect on the release, in words” value was “only a minor effect”.

Turning to `CC(C)[C@@H]1NC(=O)[C@H](C)OC(=O)[C@@H](C(C)C)NC(=O)[C@@H](C(C)C)OC(=O)[C@H](C(C)C)NC(=O)[C@H](C)OC(=O)[C@@H](C(C)C)NC(=O)[C@@H](C(C)C)OC(=O)[C@H](C(C)C)NC(=O)[C@H](C)OC(=O)[C@@H](C(C)C)NC(=O)[C@@H](C(C)C)OC1=O` [valinomycin], the “reversal of the inhibition of the procoagulant response by high extracellular [K+]” value in assay [1] (addition of valinomycin, data not shown) is recorded as “not reversed”. In addition, the “reversal of the inhibitory effect of quinine on procoagulant response” value in assay [1] (valinomycin 3 μmol/L, HEPES buffer, FIGS. 2A and B) is “partially abolished”. Moreover, the “reversal of the inhibition of procoagulant response caused by clotrimazol and charybdotoxin” value in assay [1] (valinomycin 3 μmol/L, HEPES buffer, FIGS. 2A and B (prothrombinase and annexin)) is reported as “completely reversed”. Besides, the “procoagulant response of platelets in the absence of a stimulus” value in assay [1] (valinomycin itself) is given as “did not cause a procoagulant response”. For the same compound, the “reversal of the inhibition by clotrimazol and charybdotoxin in HEPES/Choline” value in assay [2] (presence of valinomycin, HEPES/Choline buffer, annexin A5 binding, FIG. 4) was “virtually annihilated”. The “Δ[Ca2+]i with valinomycin in clotrimazol-preincubated platelets” value in assay [5] (clotrimazol 10 μmol/L plus valinomycin, 5 minutes after collagen plus thrombin) amounted to 326 ± 34 nmol/L. In addition, the “procoagulant response (prothrombinase activity) of Scott syndrome platelets, in words” value in assay [8] is given as “significant increase; also recorded: partially restored”.

Consider “iberiotoxin (QFTDVDCSVSKECWSVCKDLFGVDRGKCMGKKCRCYQ; UniProt P24663 1-37, looked up)”, for which the “effect on collagen plus thrombin-induced procoagulant (prothrombinase) activity, in words” value in assay [1] (iberiotoxin 200 nmol/L, apamin 500 nmol/L) was “without effect”.

The values above are taken from patent US20090186810A1, “POTASSIUM CHANNEL MODULATORS AND PLATELET PROCOAGULANT ACTIVITY” (priority 2006, published 2009).
